Measured values reported in paper PMC12648310, “Modular Assembled Targeting Chimera Enables Multimodal Targeted Protein Degradation” (JACS Au, 2025).
Read-outs that look alike come from different tables or passages of the source.

Key:
BRD4 = target: T1, BRD4 (Homo sapiens, UniProt O60885); assay: Immunoblot of BRD4 degradation in MDA-MB-231 cells; format: cell-based; settings: component without its click partner
T1 construct: Western blot analysis of BET protein levels was performed across these 11 module assembly combinations; endogenous in cells; host or cells: MDA-MB-231
Procedure: deprotection under General Procedure I, followed by condensation with compound 4 under General Procedure II, yielded AN2-C3-Tz as a purple oil in 60% yield (over two steps from 25).
The full NMR and MS spectra of the synthesized degrader compounds were shown in Appendix A and B, respectively. The degrader compounds were dissolved in DMSO as 10 mM stock solution and stored at -20℃, freeze-thaw cycle was avoided. Inhibitors for bioassays were purchased from […]
Cell culture and drug treatment
The breast cancer cells and leukemia cells used were purchased from Wuhan Purdue Life Technology Co., Ltd. All cell lines were tested for mycoplasma to ensure no contamination. […]
The fluorescence spectrum of POM-dTz was measured using a Hitachi F4500. […]
P0013G) premixed with a protease inhibitor cocktail. […] The supernatant was quantified and adjusted using a bicinchoninic acid (BCA) method and then boiled in an SDS loading buffer. […] After another 3 washes with TBST, the membrane was incubated with an enzymatic chemiluminescence (ECL) reagent, and the signal was detected instantly by a chemiluminescence imager (JP-K600, Jiapeng, Shanghai, China).
The signal values were quantified by ImageJ software. The expression level of a target protein was determined by the ratio of its signal value to GAPDH’s. […]

[1] = Pharmacokinetics in SD rats; format: in vivo, Sprague–Dawley (SD) rats; settings: for half-life / AUC(0-inf) / AUC(0-t) / Cmax / Tmax / bioavailability / MRT inf / C0 / Vd / clearance: male, Sprague-Dawley, rat, plasma; for MRT inf: read-out: MRTinf_obs; for clearance: read-out: CL_obs
Procedure: Given the favorable cellular performance of the POM-dmTz and JQ1-TCO stoichiometric ratio, we further investigated their in vivo pharmacokinetic (PK) profiles (Figure ). […] Blood samples were collected from the jugular vein at 5 min, 15 min, 30 min, 1, 2, 4, 7, and 24 h postdosing for drug concentration analysis.
This pharmacokinetic study protocol used SPF grade male SD rats (6-8 weeks old, weight 200-300g, supplied by a biotechnology company in Beijing) to evaluate the metabolic characteristics of compound GP262 through intravenous injection (IV) and intraperitoneal injection (IP). The IV group received a dose of 5 mg/kg (2.5 mg/mL concentration, 2 mL/kg administration), while the IP group […]
consisted of 3 fasted animals. The IV group solvent was a mixed system containing 10% DMSO, 60% PEG400, and 30% water. Collect whole blood samples at 5 minutes, 15 minutes, 0.5 hours, 1, 2, 4, 7, and 24 hours after administration. Immediately after collection with EDTA-K2 anticoagulant tube, centrifuge at 4 ℃ and 4000 × g for 5 minutes. Separate the plasma and transfer it to an anticoagulant free EP tube. Store it at -75 ± 15 ℃ for testing at ultra-low temperature. Throughout the experiment, a dual drug group parallel control was set up, and standardized operating procedures were used to ensure the timeliness and storage stability of plasma separation, providing standardized biological samples for subsequent LC-MS/MS analysis. […]

## Cc1sc2c(c1C)C(c1ccc(Cl)cc1)=NC(CC(=O)NCCNC(=O)OC1CCC=CCCC1)c1nnc(C)n1-2 (stereo not shown) [JQ1-TCO]
BRD4
  BRD4 degradation by single component alone: neither component alone triggered detectable degradation
[1]; IP 10 mg/kg
  half-life: ~124 min
[1]; IP 20 mg/kg, mean
  AUC(0-inf): 7670 ng·h/mL
  AUC(0-t): 7660 ng·h/mL
  Cmax: 1860 ng/mL
  Tmax: 25 min
  bioavailability: 64%
  half-life: 124 min
  MRT inf: 193 min
[1]; IV 5 mg/kg, mean
  AUC(0-inf): 1240 ng·h/mL
  AUC(0-t): 1240 ng·h/mL
  C0: 2030 ng/mL
  Vd: 10.3 L/kg
  half-life: 118 min
  clearance: 69 mL/min/kg
  MRT inf: 44 min

## Cc1nnc(CNC(=O)CCOCC(COCCC(=O)NCc2nnc(C)nn2)NC(=O)COc2cccc3c2C(=O)N(C2CCC(=O)NC2=O)C3=O)nn1 (stereo not shown) [POM-dmTz]
BRD4
  BRD4 degradation by single component alone: neither component alone triggered detectable degradation
[1]; IP 10 mg/kg
  T1/2: shorter half-life
  half-life: 22.6 min
[1]; IP 10 mg/kg, mean
  AUC(0-inf): 406 ng·h/mL
  AUC(0-t): 405 ng·h/mL
  Cmax: 398 ng/mL
  Tmax: 25 min
  bioavailability: 40.5%
[1]; IV 5 mg/kg, mean
  AUC(0-inf): 500 ng·h/mL
  AUC(0-t): 496 ng·h/mL
  C0: 1850 ng/mL
  Vd: 9.39 L/kg
  half-life: 40.2 min
  clearance: 171 mL/min/kg
  MRT inf: 21.3 min
